According to patent publication US20250282799A1, “SUBSTITUTED PYRIDO[4,3-d]PYRIMIDINES AS KRAS MODULATORS” (Alterome Therapeutics, Inc., priority 2023, published 2025):

Test system: KRAS G12V dependent lung adenocarcinoma cell line, NCI-H441
Experiment: Cellular pERK (Thr202/Tyr204) FRET/HTRF assay
Format: cell-based
Conditions: Homo sapiens, NCI-H441, pERK HTRF, NCI-H441 cells (KRAS G12V)
Summary of the method: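 NCI-H441, overnight plating → cpd 1 hr, 37 °C/5% CO2; DMSO neg ctrl. Lyse (phosphatase inhibitors), add donor/acceptor Abs, RT incubation, HTRF read. IC50 by curve fit.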

## [2H]C([2H])(Oc1nc(N2CCC[C@H]3[C@@H](F)[C@H]32)c2cnc(-c3cc(N)cc4cc(F)c(F)c(C#C)c34)c(F)c2n1)[C@@]12CCCN1C[C@H](F)C2 [Example 64, 5-Ethynyl-6,7-difluoro-4-(8-fluoro-4-((1S,6R,7R)-7-fluoro-2-azabicyclo[4.1.0]heptan-2-yl)-2-(((2R,7aS)-2-fluorotetrahydro-1H-pyrrolizin-7a(5H)-yl)methoxy-d2)pyrido[4,3-d]pyrimidin-7-yl)naphthalen-2-amine]
  IC50: 500 to 10000 nM

## [2H]C([2H])([2H])Oc1c(F)c(F)cc2cc(N)cc(-c3ncc4c(N5CCCC[C@H]6[C@H](F)[C@H]65)nc(OC([2H])([2H])[C@@]56CCCN5C[C@H](F)C6)nc4c3F)c12 [Example 65, 6,7-Difluoro-4-(8-fluoro-4-((1S,7R,8S)-8-fluoro-2-azabicyclo[5.1.0]octan-2-yl)-2-(((2R,7aS)-2-fluorotetrahydro-1H-pyrrolizin-7a(5H)-yl)methoxy-d2)pyrido[4,3-d]pyrimidin-7-yl)-5-(methoxy-d3)naphthalen-2-amine]
  IC50: < 50 nM

## [2H]C([2H])(Oc1nc(N2CCCC[C@H]3[C@H](F)[C@H]32)c2cnc(-c3cc(N)cc4cc(F)c(F)c(OCF)c34)c(F)c2n1)[C@@]12CCCN1C[C@H](F)C2 [Example 66, 6,7-Difluoro-4-(8-fluoro-4-((1S,7R,8S)-8-fluoro-2-azabicyclo[5.1.0]octan-2-yl)-2-(((2R,7aS)-2-fluorotetrahydro-1H-pyrrolizin-7a(5H)-yl)methoxy-d2)pyrido[4,3-d]pyrimidin-7-yl)-5-(fluoromethoxy) naphthalen-2-amine]
  IC50: < 50 nM

## [2H]C([2H])(Oc1nc(N2CCCC[C@H]3[C@H](F)[C@H]32)c2cnc(-c3cc(N)cc4cc(F)c(F)c(OC(F)F)c34)c(F)c2n1)[C@@]12CCCN1C[C@H](F)C2 [Example 67, 5-(Difluoromethoxy)-6,7-difluoro-4-(8-fluoro-4-((1S,7R,8S)-8-fluoro-2-azabicyclo[5.1.0]octan-2-yl)-2-(((2R,7aS)-2-fluorotetrahydro-1H-pyrrolizin-7a(5H)-yl)methoxy-d2)pyrido[4,3-d]pyrimidin-7-yl)naphthalen-2-amine]
  IC50: < 50 nM

## [2H]C([2H])([2H])Oc1c(F)ccc2cccc(-c3ncc4c(N5CCCC[C@H]6[C@H](F)[C@H]65)nc(OC([2H])([2H])[C@@]56CCCN5C[C@H](F)C6)nc4c3F)c12 [Example 68, 8-Fluoro-7-(7-fluoro-8-(methoxy-d3)naphthalen-1-yl)-4-((1S,7R,8S)-8-fluoro-2-azabicyclo[5.1.0]octan-2-yl)-2-(((2R,7aS)-2-fluorotetrahydro-1H-pyrrolizin-7a(5H)-yl)methoxy-d2)pyrido[4,3-d]pyrimidine]
  IC50: < 50 nM

## [2H]C([2H])([2H])Oc1c(F)c(F)c(F)c2cc(N)cc(-c3ncc4c(N5CCCC[C@H]6[C@H](F)[C@H]65)nc(OC([2H])([2H])[C@@]56CCCN5C[C@H](F)C6)nc4c3F)c12 [Example 69, 6,7,8-Trifluoro-4-(8-fluoro-4-((1S,7R,8S)-8-fluoro-2-azabicyclo[5.1.0]octan-2-yl)-2-(((2R,7aS)-2-fluorotetrahydro-1H-pyrrolizin-7a(5H)-yl)methoxy-d2)pyrido[4,3-d]pyrimidin-7-yl)-5-(methoxy-d3)naphthalen-2-amine]
  IC50: < 50 nM

## [2H]C([2H])(Oc1nc(N2CCCC[C@H]3[C@H](F)[C@H]32)c2cnc(-c3cc(N)cc4c(F)c(F)c(F)c(C#C)c34)c(F)c2n1)[C@@]12CCCN1C[C@H](F)C2 [Example 70, 5-Ethynyl-6,7,8-trifluoro-4-(8-fluoro-4-((1S,7R,8S)-8-fluoro-2-azabicyclo[5.1.0]octan-2-yl)-2-(((2R,7aS)-2-fluorotetrahydro-1H-pyrrolizin-7a(5H)-yl)methoxy-d2)pyrido[4,3-d]pyrimidin-7-yl)naphthalen-2-amine]
  IC50: < 50 nM

## [2H]C([2H])(F)Oc1c(F)c(F)cc2cc(N)cc(-c3ncc4c(N5CCCC[C@H]6[C@H](F)[C@H]65)nc(OC([2H])([2H])[C@@]56CCCN5C[C@H](F)C6)nc4c3F)c12 [Example 71, 6,7-Difluoro-4-(8-fluoro-4-((1S,7R,8S)-8-fluoro-2-azabicyclo[5.1.0]octan-2-yl)-2-(((2R,7aS)-2-fluorotetrahydro-1H-pyrrolizin-7a(5H)-yl)methoxy-d2)pyrido[4,3-d]pyrimidin-7-yl)-5-(fluoromethoxy-d2)naphthalen-2-amine]
  IC50: < 50 nM

## [2H]C([2H])(F)Oc1c(F)ccc2cccc(-c3ncc4c(N5CCCC[C@H]6[C@H](F)[C@H]65)nc(OC([2H])([2H])[C@@]56CCCN5C[C@H](F)C6)nc4c3F)c12 [Example 72, 8-Fluoro-7-(7-fluoro-8-(fluoromethoxy-d2)naphthalen-1-yl)-4-((1S,7R,8S)-8-fluoro-2-azabicyclo[5.1.0]octan-2-yl)-2-(((2R,7aS)-2-fluorotetrahydro-1H-pyrrolizin-7a(5H)-yl)methoxy-d2)pyrido[4,3-d]pyrimidine]
  IC50: < 50 nM

## [2H]C([2H])(Oc1nc(N2CCCC[C@H]3[C@H](F)[C@H]32)c2cnc(-c3cccc4ccc(F)c(OCF)c34)c(F)c2n1)[C@@]12CCCN1C[C@H](F)C2 [Example 73, 8-Fluoro-7-(7-fluoro-8-(fluoromethoxy)naphthalen-1-yl)-4-((1S,7R,8S)-8-fluoro-2-azabicyclo[5.1.0]octan-2-yl)-2-(((2R,7aS)-2-fluorotetrahydro-1H-pyrrolizin-7a(5H)-yl)methoxy-d2)pyrido[4,3-d]pyrimidine]
  IC50: < 50 nM

## [2H]C([2H])([2H])Oc1c(F)c(F)cc2cc(N)cc(-c3ncc4c(N5CCCO[C@H]6[C@H](F)[C@H]65)nc(OC([2H])([2H])[C@@]56CCCN5C[C@H](F)C6)nc4c3F)c12 [Example 74, 6,7-Difluoro-4-(8-fluoro-4-((1R,7S,8R)-8-fluoro-2-oxa-6-azabicyclo[5.1.0]octan-6-yl)-2-(((2R,7aS)-2-fluorotetrahydro-1H-pyrrolizin-7a(5H)-yl)methoxy-d2)pyrido[4,3-d]pyrimidin-7-yl)-5-(methoxy-d3)naphthalen-2-amine]
  IC50: < 50 nM

## [2H]C([2H])(Oc1nc(N2CCCO[C@H]3[C@H](F)[C@H]32)c2cnc(-c3cccc4ccc(F)c(C#C)c34)c(F)c2n1)[C@@]12CCCN1C[C@H](F)C2 [Example 75, (1R,7S,8R)-6-(7-(8-Ethynyl-7-fluoronaphthalen-1-yl)-8-fluoro-2-(((2R,7aS)-2-fluorotetrahydro-1H-pyrrolizin-7a(5H)-yl)methoxy-d2)pyrido[4,3-d]pyrimidin-4-yl)-8-fluoro-2-oxa-6-azabicyclo[5.1.0]octane]
  IC50: < 50 nM

## [2H]C([2H])(Oc1nc(N2CCCO[C@H]3[C@H](F)[C@H]32)c2cnc(-c3cccc4cc(F)c(F)c(C#C)c34)c(F)c2n1)[C@@]12CCCN1C[C@H](F)C2 [Example 76, (1R,7S,8R)-6-(7-(8-Ethynyl-6,7-difluoronaphthalen-1-yl)-8-fluoro-2-(((2R,7aS)-2-fluorotetrahydro-1H-pyrrolizin-7a(5H)-yl)methoxy-d2)pyrido[4,3-d]pyrimidin-4-yl)-8-fluoro-2-oxa-6-azabicyclo[5.1.0]octane]
  IC50: < 50 nM
